The source of these data is ChEMBL document CHEMBL1131992, “Bifunctional 2-naphthyl propargylic sulfones exhibiting high DNA intercalating and alkylating activity” (Bioorg Med Chem Lett, 1999).

For the first assay, the system named is Nucleic Acid. Nature of the assay: DNA cleavage activity as 70% FormI DNA cleavage. Type of assay: nucleic-acid assay.
The compound `CCCC(O)C#CCS(=O)(=O)c1ccc2ccccc2c1` (stereo not drawn) came in with a C70 of 5 µM.

On to `CCCC(O)C#CCS(=O)(=O)c1ccccc1` (stereo not drawn), for which the C70 came to 800 µM. Still for that read-out and setting: the result for `O=S(=O)(CC#CCCCC#CCO)c1ccccc1` reads 1000 µM; that for `O=S(=O)(CC#CCCCC#CCO)c1ccc2ccccc2c1`, 10 µM.

In a further assay the test system is P388. Nature of the assay: Cytotoxicity against P388 cell line(mouse T cell leukemia). In kind it is functional, cell-based.
By IC50 is commonly meant the concentration that gives 50% inhibition. With `O=C(OCC#CCCCC#CCS(=O)(=O)c1ccc2ccccc2c1)c1ccc2cc3ccccc3cc2c1`, the midpoint of inhibition, the IC50, lay at 17 µM. On the same count and under the same terms, the result for `O=C(OCC#CCCCC#CCS(=O)(=O)c1ccc2ccccc2c1)c1cccc2cc3ccccc3cc12` reads 42 µM; that for `O=S(=O)(CC#CCCCC#CCO)c1ccc2ccccc2c1`, 10 µM; that for `O=C(OCC#CCCCC#CCS(=O)(=O)c1ccc2ccccc2c1)c1ccc2c(c1)C(=O)c1ccccc1C2=O`, 41 µM.
